# Source: patent US20220031840A1, “Method of Treatment” (HaemaLogix Pty Ltd, priority 2018, published 2022)
# How the values were obtained:
# urine κFLC = experiment: 24-hour urine κFLC (FreeLite assay); assay type: in vivo, human
# Description: Serum FLC levels were quantified using the FreeLite™ assay (The Binding Site Group Ltd, Birmingham, UK). […] Twenty-four-hour urine collection for urine protein electrophoresis immunofixation, urine FLC measurement (FreeLite™ assay), and creatinine clearance were collected on the day of infusion and on Day 45.
# [1] = test system: macrophage inhibitory factor (MIF); experiment: Biomarker analysis: serum MIF; assay type: in vivo, human; conditions: adjusted for cytokine baseline differences
# Protocol: (§1) Patient serum samples for biomarker analysis were collected approximately 30 minutes before infusion of kappamab and then at 6, 48, 192, and 1,080 hours after infusion for all patients. Samples were analysed in triplicate and serum levels of 48 human cytokines, chemokines, and growth factors were measured using the Bio-Plex Pro™ Human Cytokine 27-plex and 21-plex assays according to the manufacturer's recommendations (Bio-Rad, Carlsbad, Calif., USA; Cat No M10-0KCAF0Y, mg0-005KMII). Results were verified by repeating the 21-plex assay in triplicate and the samples were randomized across the assay plate. Pre-infusion samples were used as the baseline (t=0) for the analysis.
# (§2) Multivariate analysis of the biomarker data was performed using R version 3.1.0 (2014-04-10) software (http://www.R-project.org/). Linear mixed effects modelling was completed using 1me4 (Bates et al. 2015). […]
# (§3) To find significance between kappamab dose, time, and cytokine expression levels, we fitted a linear mixed-effects model that modelled cytokine fluorescence expression levels with fixed-effects terms for baseline cytokine fluorescence expression, kappamab dose (with 4 levels: 0.3, 1.0, 3.0, and 10 mg/kg), time (treated as factor with 5 levels), and cytokine with 48 levels, plus their interactions, with a random effect associated with patient (12 levels) and plex (2 levels). […]
# serum M protein = experiment: Serum M protein after kappamab; assay type: in vivo, human
# multiple myeloma = experiment: Myeloma response, 18FDG-PET scan; assay type: in vivo, human
# Protocol: FIG. 5. ^[…]-positron emission tomography (^18FDG-PET) scans for Patient 8 (who was receiving lenalidomide) prior to kappamab treatment (Panel A) and 30 days after intravenous infusion with 3.0 mg/kg kappamab (Panel B). ^18FDG-PET scanning was performed encompassing the skull vertex down to the knees on the combined PET/Computed Tomography (CT) scanner and a contemporaneous low-dose, non-contrast CT scan was performed for the purposes of attenuation correction and to provide anatomical correlation. […] In the spine, disease is most prominent within the sacrum. In the appendicular skeleton, disease is most pronounced within the proximal femur, where a prosthetic rod is in situ. No metabolically active disease is present outside the bones. In Panel B, ^18FDG-PET scanning was performed as before to assess the response 30 days after kappamab treatment. […] Low-grade uptake on the right lower lateral chest wall was […] and may reflect physiological muscular activity.
# As patients only received a single infusion of kappamab it was not anticipated that any conventional responses would be observed.
# CCL27 = experiment: Biomarker analysis: serum CCL27; assay type: in vivo, human; conditions: adjusted for cytokine baseline differences
# Protocol: as §1, §2, §3
# CXCL9 = experiment: Biomarker analysis: serum CXCL9; assay type: in vivo, human; conditions: adjusted for cytokine baseline differences
# Protocol: as §1, §2, §3
# [2] = test system: human anti-chimeric antibody (HACA) against kappamab; experiment: Human anti-chimeric antibody (HACA) sandwich ELISA; assay type: in vivo; conditions: Day 45 post infusion, any patient
# Protocol: Blood samples were taken at pre-infusion and at completion of the treatment phase (Day 45 post infusion) for measurement of HACA responses. The presence of HACA was measured using a validated sandwich ELISA. Briefly, kappamab was immobilized on ELISA plates and the captured antibodies were detected using biotinylated kappamab and ExtrAvidie-alkaline phosphatase (Sigma, USA) followed by the alkaline phosphatase (AP) substrate. Goat anti-human IgG was used as the positive control for the assay.
# CXCL10 = experiment: Biomarker analysis: serum CXCL10; assay type: in vivo, human; conditions: adjusted for cytokine baseline differences
# Protocol: as §1, §2, §3
# [3] = test system: 48 human cytokines, chemokines, and growth factors; experiment: Biomarker analysis, Bio-Plex 27-plex and 21-plex, mixed-effects model; assay type: in vivo; conditions: 48 cytokines
# Protocol: as §1, §2, §3
substance,measurement,setting,value
"kappamab: humanized form of K121 anti-KMA antibody; VH SEQ ID NO: 1, VL SEQ ID NO: 2",Patients with a decrease in urine κFLC,"urine κFLC; Day 1, 8/12 patients",67%
same,Patients with a decrease in urine κFLC,"urine κFLC; Day 45 post infusion, 7/12 patients",58%
same,Urine κFLC,"urine κFLC; Patient 1, Day 1",144 mg/24 hours
same,Urine κFLC percent change from baseline,"urine κFLC; Patient 1, Day 1",−31%
same,Urine κFLC,"urine κFLC; Patient 1, Day 45",107 mg/24 hours
same,Urine κFLC percent change from baseline,"urine κFLC; Patient 1, Day 45",−49%
same,Urine κFLC,"urine κFLC; Patient 2, Day 1",1902 mg/24 hours
same,Urine κFLC percent change from baseline,"urine κFLC; Patient 2, Day 1",−27%
same,Urine κFLC percent change from baseline,"urine κFLC; Patient 2, Day 45",−13%
same,Urine κFLC,"urine κFLC; Patient 2, Day 45, exceeds upper limit of quantitation",> 2272 mg/24 hours
same,Urine κFLC,"urine κFLC; Patient 3, Day 1",1143 mg/24 hours
same,Urine κFLC percent change from baseline,"urine κFLC; Patient 3, Day 1",−15%
same,Urine κFLC,"urine κFLC; Patient 3, Day 45",5964 mg/24 hours
same,Urine κFLC percent change from baseline,"urine κFLC; Patient 3, Day 45",+343%
same,Urine κFLC,"urine κFLC; Patient 4, Day 1",24 mg/24 hours
same,Urine κFLC percent change from baseline,"urine κFLC; Patient 4, Day 1",+85%
same,Urine κFLC,"urine κFLC; Patient 4, Day 45",18 mg/24 hours
same,Urine κFLC percent change from baseline,"urine κFLC; Patient 4, Day 45",+38%
same,Urine κFLC,"urine κFLC; Patient 5, Day 1",31 mg/24 hours
same,Urine κFLC percent change from baseline,"urine κFLC; Patient 5, Day 1",−68%
same,Urine κFLC,"urine κFLC; Patient 5, Day 45",103 mg/24 hours
same,Urine κFLC percent change from baseline,"urine κFLC; Patient 5, Day 45",+6%
same,Urine κFLC,"urine κFLC; Patient 6, Day 1",38 mg/24 hours
same,Urine κFLC percent change from baseline,"urine κFLC; Patient 6, Day 1",−17%
same,Urine κFLC,"urine κFLC; Patient 6, Day 45",45 mg/24 hours
same,Urine κFLC percent change from baseline,"urine κFLC; Patient 6, Day 45",−2%
same,Urine κFLC,"urine κFLC; Patient 7, Day 1",390 mg/24 hours
same,Urine κFLC percent change from baseline,"urine κFLC; Patient 7, Day 1",+25%
same,Urine κFLC,"urine κFLC; Patient 7, Day 45",286 mg/24 hours
same,Urine κFLC percent change from baseline,"urine κFLC; Patient 7, Day 45",−8%
same,Urine κFLC,"urine κFLC; Patient 8, Day 1",34 mg/24 hours
same,Urine κFLC percent change from baseline,"urine κFLC; Patient 8, Day 1",+278%
same,Urine κFLC,"urine κFLC; Patient 8, Day 45",25 mg/24 hours
same,Urine κFLC percent change from baseline,"urine κFLC; Patient 8, Day 45",+178%
same,Urine κFLC,"urine κFLC; Patient 9, Day 1",49 mg/24 hours
same,Urine κFLC percent change from baseline,"urine κFLC; Patient 9, Day 1",−13%
same,Urine κFLC,"urine κFLC; Patient 9, Day 45",39 mg/24 hours
same,Urine κFLC percent change from baseline,"urine κFLC; Patient 9, Day 45",−30%
same,Urine κFLC,"urine κFLC; Patient 10, Day 1",13 mg/24 hours
same,Urine κFLC percent change from baseline,"urine κFLC; Patient 10, Day 1",−69%
same,Urine κFLC,"urine κFLC; Patient 10, Day 45",40 mg/24 hours
same,Urine κFLC percent change from baseline,"urine κFLC; Patient 10, Day 45",−5%
same,Urine κFLC,"urine κFLC; Patient 12, Day 1",297 mg/24 hours
same,Urine κFLC percent change from baseline,"urine κFLC; Patient 12, Day 1",−9%
same,Urine κFLC,"urine κFLC; Patient 12, Day 45",363 mg/24 hours
same,Urine κFLC percent change from baseline,"urine κFLC; Patient 12, Day 45",+11%
same,Urine κFLC,"urine κFLC; Patient 13, Day 1",166 mg/24 hours
same,Urine κFLC percent change from baseline,"urine κFLC; Patient 13, Day 1",+12%
same,Urine κFLC,"urine κFLC; Patient 13, Day 45",29 mg/24 hours
same,Urine κFLC percent change from baseline,"urine κFLC; Patient 13, Day 45",−80%
same,Dose-related trend in urinary excretion of κFLC,urine κFLC; within each dose cohort,no consistent dose-related trend
same,Change in serum concentration,[1],dose-related decreases
same,Patients with minor dose-related decreases in serum M protein,serum M protein; 7/11 patients,64%
same,Serum M protein response versus IMWG response criteria,serum M protein; in vivo,did not meet the IMWG response criteria
same,18FDG-PET metabolic response,"multiple myeloma; Patient 8 (receiving lenalidomide), 3 mg/kg, 30 days after infusion versus baseline scan, 3 mg/kg",favourable and almost complete metabolic response
same,Symptomatic improvement,"multiple myeloma; Patient 8, 3 mg/kg",diminished bone pain and normalization of kidney function
same,Change in serum concentration,CCL27,dose-related decreases
same,Change in serum concentration,CXCL9,dose-related decreases
same,HACA response to kappamab,[2],no antibody responses to kappamab were detected
same,Change in serum concentration,CXCL10,dose-related decreases
same,Increases in serum cytokine concentrations in response to treatment,[3],No increases
